{"source": "patent US8883737B2", "about": "“Methods of treating cancer” (Endocyte, Inc., priority 2010, dated 2014)", "key": {"KB tumors": {"system": "KB tumors", "assay": "In vivo antitumor experiments, s.c. KB tumors", "parameters": "species or system nu/nu mice", "protocol": "(§1) Four to six week-old female nu/nu mice (Charles River, Wilmington, Mass.) or six to seven week-old female Balb/c mice (Harlan Sprague Dawley, Inc., Indianapolis, Ind.) or four to six week-old female DBA mice (Harlan Sprague Dawley, Inc., Indianapolis, Ind.) were maintained on a standard 12 h light-dark cycle and fed ad libitum with folate-deficient chow (Harlan diet #TD00434, Harlan Teklad, Madison, Wis.) for the duration of the experiment. FR-positive human nasopharyngeal KB cells, human ovarian IGR-OV1 cells, human ovarian OV90 cells and syngeneic mouse lymphocytic leukemia L1210 cells were grown continuously as a monolayer, using folate-free RPMI medium (FFRPMI) containing 10% heat-inactivated fetal calf serum (HIFCS) at 37° C. in a 5% CO2/95% air-humidified atmosphere with no antibiotics. Syngeneic FR-positive Madison 109 (M109) lung carcinoma cells were generated from M109 tumors and cultured for a few days in FFRPMI containing 10% HIFCS for a few days before implantation in mice. KB cells (1×10^6 per nu/nu mouse), M109 cells (1×10^6 per Balb/c mouse), IGR-OV1 cells (4×10^6 per nu/nu mouse) or OV90 cells (1×10^6 per nu/nu mouse) or L1210 cells (2×10^5 per DBA mouse) in 100 μL were injected in the subcutis of the dorsal medial area. Mice were divided into groups of five, and test articles were freshly prepared and injected through the lateral tail vein under sterile conditions in a volume of 200 μL of phosphate-buffered saline (PBS). Intravenous (i.v.) treatments were typically initiated when the tumors were approximately 100-200 mm^3 in volume. The mice in the control groups received no treatment. Growth of each s.c. tumor was followed by measuring the tumor three times per week during treatment and twice per week thereafter until a volume of 1500 mm^3 was reached. Tumors were measured in two perpendicular directions using Vernier calipers, and their volumes were calculated as 0.5×L×W^2, where L=measurement of longest axis in mm and W=measurement of axis perpendicular to L in mm. As a general measure of toxicity, changes in body weights were determined on the same schedule as tumor volume measurements. Survival of animals was monitored daily. Animals that were moribund (or unable to reach food or water) were euthanized by CO2 asphyxiation. All in vivo studies were performed in accordance with the American Accreditation Association of Laboratory Animal Care guidelines.\n(§2) For individual tumors, a partial response (PR) was defined as volume regression >50% but with measurable tumor (>2 mm^3) remaining at all times. Complete response (CR) was defined as a disappearance of measurable tumor mass (<2 mm^3) at some point until the end of the study. A cure was defined as a CR without tumor re-growth within the study time frame."}, "KB tumor cells": {"system": "KB tumor cells", "assay": "Cell growth inhibition (3H-thymidine), KB tumor cells", "type": "cell-based", "settings": "Homo sapiens, FIG. 31, read-out: In vitro cytotoxicity IC50", "protocol": "Exponentially growing KB or J6456 cells were seeded in 24-well plates 24 h before treatment with drugs. […] Cells treated with vindesine, DAVLBH or doxorubicin alone were treated for 72 h. A total of five drug concentrations for each drug plus a drug-free control were evaluated. Cells were then treated with fresh medium containing ^3H-thymidine for 2 h at 37° C. Cells were further washed with PBS and treated with ice-cold 5% trichloroacetic acid. After 15 min, the trichloroacetic acid was aspirated and the cells solubilized by the addition of 0.25 N sodium hydroxide for 15 min at room temperature. Each solubilized sample was transferred to scintillation vials containing Ecolume scintillation cocktail and counted in a liquid scintillation counter. […]"}, "M109 tumors": {"system": "M109 tumors", "assay": "In vivo antitumor experiments, s.c. M109 tumors", "parameters": "species or system Balb/c mice", "settings": "five animals per group", "protocol": "as §1, §2"}, "OV90 cells [1]": {"system": "OV90 cells", "settings": "FIG. 53, EC145 with or without Lapatinib"}, "IGR-OV1 cells [2]": {"system": "IGR-OV1 cells", "settings": "FIG. 53, EC145 with or without Lapatinib"}, "RAW cells": {"system": "RAW cells", "assay": "Cell growth inhibition, RAW cells", "type": "cell-based", "settings": "FIG. 49"}, "OV90 cells [3]": {"system": "OV90 cells", "assay": "cells", "settings": "Homo sapiens, OV-90"}, "IGR-OV1 cells [4]": {"system": "IGR-OV1 cells", "assay": "cells", "settings": "Homo sapiens, IGROV-1"}, "[5]": {"settings": "FIG. 10, KB tumors 114-177 mm^3, five animals per group, EC145 1 μmol/kg/injection TIW 2 weeks, Irinotecan 40 mg/kg BIW 2 weeks"}, "[6]": {"settings": "FIG. 14, M109 tumors 86-149 mm^3, EC145 alone 2 μmol/kg/injection TIW 2 weeks (1 μmol/kg in combination), Gemcitabine 40 mg/kg BIW 5 doses"}, "[7]": {"settings": "FIG. 12, KB tumors 108-222 mm^3, five animals per group, EC145 1 μmol/kg/injection TIW 2 weeks, Avastin 5 mg/kg BIW 2 weeks"}, "[8]": {"settings": "FIG. 16, M109 tumors 99-164 mm^3, EC145 alone 2 μmol/kg/injection TIW 2 weeks (1 μmol/kg in combination), Tarceva 100 mg/kg qd5 2 weeks"}}, "note": "“And” between values parts separate entries of the source, which are not always exact repeats. Equal entries are not always repeated. Where two headings read alike, the source gives them in different places.", "data": [{"compound": "CC[C@@]1(O)C(=O)OCc2c1cc1n(c2=O)Cc2cc3c(CN(C)C)c(O)ccc3nc2-1", "note": "[Topotecan, topotecan]", "values": [{"measurement": "Cures", "setting": "KB tumors; FIG. 5, KB tumors 144-204 mm^3, five animals per group, EC145 1 μmol/kg/injection TIW 2 weeks, Topotecan 5 mg/kg TIW 2 weeks", "result": "no"}]}, {"compound": "CCc1c2c(nc3ccc(OC(=O)N4CCC(N5CCCCC5)CC4)cc13)-c1cc3c(c(=O)n1C2)COC(=O)[C@]3(O)CC", "note": "[Irinotecan, irinotecan]", "values": [{"measurement": "Cures", "setting": "KB tumors; [5]", "result": "no"}, {"measurement": "complete responses", "setting": "KB tumors; [5]", "result": "no"}, {"measurement": "partial responses", "setting": "KB tumors; [5]", "result": "no"}]}, {"compound": "COc1cccc2c1C(=O)c1c(O)c3c(c(O)c1C2=O)C[C@@](O)(C(=O)CO)C[C@@H]3O[C@H]1C[C@H](N)[C@H](O)[C@H](C)O1", "note": "[Doxorubicin, doxorubicin]", "values": [{"measurement": "IC50", "setting": "KB tumor cells", "result": 0.034, "unit": "µM"}]}, {"compound": "Nc1ccn([C@@H]2O[C@H](CO)[C@@H](O)C2(F)F)c(=O)n1", "note": "[Gemcitabine, gemcitabine]", "values": [{"measurement": "Cures", "setting": "M109 tumors; [6]", "result": "no"}, {"measurement": "complete responses", "setting": "M109 tumors; [6]", "result": "no"}, {"measurement": "partial responses", "setting": "M109 tumors; [6]", "result": "no"}]}, {"compound": "CC[C@]1(O)C[C@@H]2CN(CCc3c([nH]c4ccccc34)[C@@](C(=O)OC)(c3cc4c(cc3OC)N(C)[C@H]3[C@@](O)(C(=O)NN)[C@H](O)[C@]5(CC)C=CCN6CC[C@]43[C@@H]65)C2)C1", "note": "[DAVLBH, desacetylvinblastine hydrazide]", "values": [{"measurement": "effect of unconjugated DAVLBH on Doxil activity", "setting": "KB tumors; FIG. 27, DAVLBH 0.75 μmol/kg/injection TIW 2 weeks + DOXIL 5 mg/kg BIW 2 weeks", "result": "antagonizes Doxil activity"}]}, {"compound": "N.N.[Cl][Pt][Cl]", "note": "[Cisplatin, cisplatin]", "values": [{"measurement": "partial responses", "setting": "KB tumors; mouse, in vivo", "result": 2}]}, {"compound": "bevacizumab [Avastin]", "values": [{"measurement": "Cures", "setting": "KB tumors; [7]", "result": "no"}, {"measurement": "complete responses", "setting": "KB tumors; [7]", "result": "no"}, {"measurement": "partial responses", "setting": "KB tumors; [7]", "result": "no"}]}, {"compound": "CC[C@]1(O)C[C@H]2CN(CCc3c([nH]c4ccccc34)[C@@](C(=O)OC)(c3cc4c(cc3OC)N(C)[C@H]3[C@@](O)(C(=O)NNC(=O)OCCSSC[C@H](NC(=O)[C@H](CC(=O)O)NC(=O)[C@H](CC(=O)O)NC(=O)[C@H](CCCNC(=N)N)NC(=O)[C@H](CC(=O)O)NC(=O)CC[C@H](NC(=O)c5ccc(NCc6cnc7nc(N)[nH]c(=O)c7n6)cc5)C(=O)O)C(=O)O)[C@H](O)[C@]5(CC)C=CCN6CC[C@]43[C@@H]65)C2)C1", "note": "[EC145]", "values": [{"measurement": "complete responses", "setting": "KB tumors; mouse, in vivo", "result": 0}, {"measurement": "Cures", "setting": "M109 tumors; [6]", "result": 2}, {"measurement": "complete responses", "setting": "M109 tumors; [6]", "result": 0}, {"measurement": "partial responses", "setting": "M109 tumors; [6]", "result": 0}, {"measurement": "Cures", "setting": "M109 tumors; [8]", "result": 0}, {"measurement": "complete responses", "setting": "M109 tumors; [8]", "result": 0}, {"measurement": "partial responses", "setting": "M109 tumors; [8]", "result": 0}, {"measurement": "Cures", "setting": "M109 tumors; FIG. 40, M109 tumors, EC145 1 μmol/kg/injection TIW 2 weeks, DOXIL 4 mg/kg BIW 2 weeks", "result": "3/5 and 3"}, {"measurement": "IC50", "setting": "OV90 cells [1]", "result": 0.329, "unit": "µM"}, {"measurement": "IC50", "setting": "IGR-OV1 cells [2]", "result": 0.00358, "unit": "µM"}]}, {"compound": "N.N.O=C([O-])C1(C(=O)[O-])CCC1.[Pt+2]", "note": "[Carboplatin, carboplatin]", "values": [{"measurement": "partial responses", "setting": "KB tumors; FIG. 1, KB tumors 109-188 mm^3, five animals per group, EC145 1 μmol/kg/injection TIW 2 weeks, Carboplatin 50 mg/kg TIW 1 week", "result": 3}]}, {"compound": "CS(=O)(=O)CCNCc1ccc(-c2ccc3ncnc(Nc4ccc(OCc5cccc(F)c5)c(Cl)c4)c3c2)o1", "note": "[Lapatinib, lapatinib]", "values": [{"measurement": "IC50", "setting": "RAW cells", "result": 2.85, "unit": "µM"}, {"measurement": "IC50", "setting": "OV90 cells [3]", "result": 2.46, "unit": "µM"}, {"measurement": "IC50", "setting": "IGR-OV1 cells [4]", "result": 1.75, "unit": "µM"}]}, {"compound": "CC[C@]1(O)C[C@@H]2CN(CCc3c([nH]c4ccccc34)[C@@](C(=O)OC)(c3cc4c(cc3OC)N(C)[C@H]3[C@@](O)(C(N)=O)[C@H](O)[C@]5(CC)C=CCN6CC[C@]43[C@@H]65)C2)C1", "note": "[vindesine]", "values": [{"measurement": "effect of unconjugated vindesine on Doxil activity", "setting": "KB tumors; FIG. 25/26, vindesine 1 mg/kg/injection TIW 2 weeks + DOXIL 5 mg/kg BIW 2 weeks", "result": "antagonizes Doxil activity"}]}, {"compound": "C#Cc1cccc(Nc2ncnc3cc(OCCOC)c(OCCOC)cc23)c1", "note": "[Tarceva, erlotinib]", "values": [{"measurement": "Cures", "setting": "M109 tumors; [8]", "result": "no"}, {"measurement": "complete responses", "setting": "M109 tumors; [8]", "result": "no"}, {"measurement": "partial responses", "setting": "M109 tumors; [8]", "result": "no"}]}]}
